# Square brackets hold non-standard residues; d marks the D form. Peptide text beside a SMILES is read from it.
# Test system: multi-drug resistant (MDR) strain (MDR-TB, clinical isolate)
# Settings: microdilution broth, 96-well, 2 × 10^5 CFU/mL, 37 °C 14 days, resazurin 48 h; conducted twice with three technical replicates each
row,SMILES,"MIC in µg/mL, MDR-TB [µg/mL]"
1,CC[C@@H](C)[C@@H](NC(=O)[C@@H](CCCCN)NC(=O)[C@H](N)Cc1c[nH]c2ccccc12)C(=O)N[C@@H](C(=O)N[C@H](Cc1ccccc1)C(=O)N[C@H](Cc1c[nH]c2ccccc12)C(=O)N[C@H](Cc1c[nH]c2ccccc12)C(=O)N[C@H](CCCNC(=N)N)C(=O)N[C@H](CCCNC(=N)N)C(N)=O)C(C)C [peptide 14D] (H-[dW][dK][dI][dV][dF][dW][dW][dR][dR]-NH2),>50
2,CC[C@@H](C)[C@@H](NC(=O)[C@@H](CCCCN)NC(=O)[C@H](N)Cc1c[nH]c2ccccc12)C(=O)N[C@H](CO)C(=O)N[C@H](Cc1ccccc1)C(=O)N[C@H](Cc1c[nH]c2ccccc12)C(=O)N[C@H](Cc1c[nH]c2ccccc12)C(=O)N[C@H](CCCNC(=N)N)C(=O)N[C@H](CCCNC(=N)N)C(N)=O [wkisfwwrr] (H-[dW][dK][dI][dS][dF][dW][dW][dR][dR]-NH2; N-terminus assumed),20
3,CC[C@@H](C)[C@@H](NC(=O)[C@@H](CCCCN)NC(=O)[C@H](N)Cc1c[nH]c2ccccc12)C(=O)N[C@@H](C(=O)N[C@H](Cc1ccccc1)C(=O)NCC(=O)N[C@H](Cc1c[nH]c2ccccc12)C(=O)N[C@H](CCCNC(=N)N)C(=O)N[C@H](CCCNC(=N)N)C(N)=O)C(C)C [wkivfGwrr] (H-[dW][dK][dI][dV][dF]G[dW][dR][dR]-NH2; N-terminus assumed),20
4,CC[C@@H](C)[C@@H](NC(=O)[C@@H](CCCCN)NC(=O)[C@H](N)Cc1c[nH]c2ccccc12)C(=O)N[C@@H](C(=O)N[C@H](Cc1ccccc1)C(=O)N[C@H](CC(=O)O)C(=O)N[C@H](Cc1c[nH]c2ccccc12)C(=O)N[C@H](CCCNC(=N)N)C(=O)N[C@H](CCCNC(=N)N)C(N)=O)C(C)C [wkivfdwrr] (H-[dW][dK][dI][dV][dF][dD][dW][dR][dR]-NH2),20
5,CC[C@@H](C)[C@@H](NC(=O)[C@@H](CCCCN)NC(=O)[C@H](N)Cc1c[nH]c2ccccc12)C(=O)N[C@@H](C(=O)N[C@H](Cc1ccccc1)C(=O)N[C@H](CC(N)=O)C(=O)N[C@H](Cc1c[nH]c2ccccc12)C(=O)N[C@H](CCCNC(=N)N)C(=O)N[C@H](CCCNC(=N)N)C(N)=O)C(C)C [wkivfnwrr] (H-[dW][dK][dI][dV][dF][dN][dW][dR][dR]-NH2; N-terminus assumed),20

# Reference: article PMC10819809 (Microorganisms, 2024)
